Species on record: Rattus norvegicus
Test: DrugMatrix - Regimen: Daily Repeat
Format: toxicity, organism-based, Sprague-Dawley
Design: regimen Daily Repeat, gender Male, age 6-8 weeks
Details: in vivo, po, route oral GAVAGE, […]; for ABSOLUTE BASOPHIL / ABSOLUTE EOSINOPHIL / ABSOLUTE LYMPHOCYTE / ABSOLUTE MONOCYTE / ABSOLUTE SEGMENTED NEUTROPHIL / BASOPHIL / EOSINOPHIL / ERYTHROCYTE COUNT / HEMATOCRIT / HEMOGLOBIN / LEUKOCYTE COUNT / LYMPHOCYTE / MEAN CORPUSCULAR HEMOGLOBIN / MEAN CORPUSCULAR HEMOGLOBIN CONCENTRATION / MEAN CORPUSCULAR VOLUME / MONOCYTE / NEUTROPHIL / NUCLEATED RED BLOOD CELLS / PLATELET COUNT: tissue Blood; for ALANINE AMINOTRANSFERASE / ALBUMIN / ALKALINE PHOSPHATASE / ASPARTATE AMINOTRANSFERASE / BLOOD UREA NITROGEN / CARBON DIOXIDE / CHLORIDE / CHOLESTEROL / CREATINE PHOSPHOKINASE / CREATININE / GLUCOSE / LACTATE DEHYDROGENASE / LIPASE / PHOSPHORUS / POTASSIUM / SODIUM / TOTAL BILIRUBIN / TOTAL PROTEIN / URIC ACID: tissue Plasma
[1] = 25 mg/kg, 120 h, dose level Low, time 5 day
[2] = 800 mg/kg, 72 h, dose level High, time 3 day
[3] = 800 mg/kg, 120 h, dose level High, time 5 day

CC(C)(C)NC(=O)[C@H]1CC[C@H]2[C@@H]3CC[C@H]4NC(=O)C=C[C@]4(C)[C@H]3CC[C@]12C [FINASTERIDE]
ABSOLUTE BASOPHIL [1]: 0 CELLS/uL | ABSOLUTE EOSINOPHIL [1]: 34.67 CELLS/uL | ABSOLUTE LYMPHOCYTE [1]: 7140 CELLS/uL | ABSOLUTE MONOCYTE [1]: 141.33 CELLS/uL | ABSOLUTE SEGMENTED NEUTROPHIL [1]: 817.33 CELLS/uL | BASOPHIL [1]: 0% | EOSINOPHIL [1]: 0.67% | ERYTHROCYTE COUNT [1]: 5.11 x10E6/uL | HEMATOCRIT [1]: 33.07% | HEMOGLOBIN [1]: 13.03 G/DL | LEUKOCYTE COUNT [1]: 8.13 x10E3/uL | LYMPHOCYTE [1]: 87.67% | MEAN CORPUSCULAR HEMOGLOBIN [1]: 25.53 pg | MEAN CORPUSCULAR HEMOGLOBIN CONCENTRATION [1]: 39.4 G/DL | MEAN CORPUSCULAR VOLUME [1]: 64.77 fL | MONOCYTE [1]: 1.67% | NEUTROPHIL [1]: 10% | NUCLEATED RED BLOOD CELLS [1]: 0 /100WBC | PLATELET COUNT [1]: 1248.33 x10E3/uL | ALANINE AMINOTRANSFERASE [1]: 61 u/L | ALBUMIN [1]: 4.23 G/DL | ALKALINE PHOSPHATASE [1]: 355.67 u/L | ASPARTATE AMINOTRANSFERASE [1]: 74.67 u/L | BLOOD UREA NITROGEN [1]: 11.67 mg/dL | CARBON DIOXIDE [1]: 32.33 mmol/L | CHLORIDE [1]: 103 MEQ/L | CHOLESTEROL [1]: 87.33 mg/dL | CREATINE PHOSPHOKINASE [1]: 247.33 u/L | CREATININE [1]: 0.43 mg/dL | GLUCOSE [1]: 152 mg/dL | LACTATE DEHYDROGENASE [1]: 82.33 u/L | LIPASE [1]: 11 u/L | PHOSPHORUS [1]: 11.7 mg/dL | POTASSIUM [1]: 6.04 MEQ/L | SODIUM [1]: 146.03 MEQ/L | TOTAL BILIRUBIN [1]: 0.17 mg/dL | TOTAL PROTEIN [1]: 5.93 G/DL | URIC ACID [1]: 0.8 mg/dL | ABSOLUTE BASOPHIL [2]: 0 CELLS/uL | ABSOLUTE EOSINOPHIL [2]: 0 CELLS/uL | ABSOLUTE LYMPHOCYTE [2]: 7333 CELLS/uL | ABSOLUTE MONOCYTE [2]: 111.33 CELLS/uL | ABSOLUTE SEGMENTED NEUTROPHIL [2]: 889 CELLS/uL | BASOPHIL [2]: 0% | EOSINOPHIL [2]: 0% | ERYTHROCYTE COUNT [2]: 5.15 x10E6/uL | HEMATOCRIT [2]: 31.93% | HEMOGLOBIN [2]: 12.77 G/DL | LEUKOCYTE COUNT [2]: 8.33 x10E3/uL | LYMPHOCYTE [2]: 88.33% | MEAN CORPUSCULAR HEMOGLOBIN [2]: 24.83 pg | MEAN CORPUSCULAR HEMOGLOBIN CONCENTRATION [2]: 40 G/DL | MEAN CORPUSCULAR VOLUME [2]: 62.17 fL | MONOCYTE [2]: 1.33% | NEUTROPHIL [2]: 10.33% | NUCLEATED RED BLOOD CELLS [2]: 0 /100WBC | PLATELET COUNT [2]: 974.67 x10E3/uL | ALANINE AMINOTRANSFERASE [2]: 103.67 u/L | ALBUMIN [2]: 3.93 G/DL | ALKALINE PHOSPHATASE [2]: 409.67 u/L | ASPARTATE AMINOTRANSFERASE [2]: 102.67 u/L | BLOOD UREA NITROGEN [2]: 11 mg/dL | CARBON DIOXIDE [2]: 26 mmol/L | CHLORIDE [2]: 102.33 MEQ/L | CHOLESTEROL [2]: 70.33 mg/dL | CREATINE PHOSPHOKINASE [2]: 348.33 u/L | CREATININE [2]: 0.1 mg/dL | GLUCOSE [2]: 149 mg/dL | LACTATE DEHYDROGENASE [2]: 104.67 u/L | LIPASE [2]: 10.67 u/L | PHOSPHORUS [2]: 11.3 mg/dL | POTASSIUM [2]: 5.02 MEQ/L | SODIUM [2]: 144 MEQ/L | TOTAL BILIRUBIN [2]: 0.1 mg/dL | TOTAL PROTEIN [2]: 5.37 G/DL | URIC ACID [2]: 0.87 mg/dL | ABSOLUTE BASOPHIL [3]: 0 CELLS/uL | ABSOLUTE EOSINOPHIL [3]: 85.67 CELLS/uL | ABSOLUTE LYMPHOCYTE [3]: 6528 CELLS/uL | ABSOLUTE MONOCYTE [3]: 164.33 CELLS/uL | ABSOLUTE SEGMENTED NEUTROPHIL [3]: 922 CELLS/uL | BASOPHIL [3]: 0% | EOSINOPHIL [3]: 1% | ERYTHROCYTE COUNT [3]: 5.25 x10E6/uL | HEMATOCRIT [3]: 33.4% | HEMOGLOBIN [3]: 12.97 G/DL | LEUKOCYTE COUNT [3]: 7.7 x10E3/uL | LYMPHOCYTE [3]: 85% | MEAN CORPUSCULAR HEMOGLOBIN [3]: 24.7 pg | MEAN CORPUSCULAR HEMOGLOBIN CONCENTRATION [3]: 38.83 G/DL | MEAN CORPUSCULAR VOLUME [3]: 63.67 fL | MONOCYTE [3]: 2% | NEUTROPHIL [3]: 12% | NUCLEATED RED BLOOD CELLS [3]: 0 /100WBC | PLATELET COUNT [3]: 1238.33 x10E3/uL | ALANINE AMINOTRANSFERASE [3]: 55.33 u/L | ALBUMIN [3]: 4.33 G/DL | ALKALINE PHOSPHATASE [3]: 297 u/L | ASPARTATE AMINOTRANSFERASE [3]: 76.67 u/L | BLOOD UREA NITROGEN [3]: 13.67 mg/dL | CARBON DIOXIDE [3]: 32.33 mmol/L | CHLORIDE [3]: 103 MEQ/L | CHOLESTEROL [3]: 66.33 mg/dL | CREATINE PHOSPHOKINASE [3]: 232.33 u/L | CREATININE [3]: 0.12 mg/dL | GLUCOSE [3]: 157.67 mg/dL | LACTATE DEHYDROGENASE [3]: 64.33 u/L | LIPASE [3]: 10.33 u/L | PHOSPHORUS [3]: 11.1 mg/dL | POTASSIUM [3]: 5.99 MEQ/L | SODIUM [3]: 147.03 MEQ/L | TOTAL BILIRUBIN [3]: 0.1 mg/dL | TOTAL PROTEIN [3]: 6.07 G/DL | URIC ACID [3]: 0.5 mg/dL

— ChEMBL document CHEMBL3885881, “DrugMatrix”
